In patent publication US7244731B2, “6-Methylpyridine derivatives, method for preparing thereof and antiviral pharmaceutical composition comprising the same” (B & C Biopharm, priority 2002, dated 2007):

Tests used:
[1] = molecular target: T1, HCV RNA polymerase (RNA dependent RNA polymerase, NS5B) (Hepatitis C virus genotype 1b, UniProt P26663); experiment: Inhibitory effect on activity of recombinant HCV RNA polymerase in vitro; type: biochemical, Hepatitis C virus (HCV-1b type)
T1 construct: NS5B region (1773 bps) was amplified by PCR and cloned into pVLHIS; (His)6; made in house; host or cells: Sf9 insect cells infected with recombinant baculovirus (pVLHIS-NS5B)
T1 sequence (P26663 2420-3010): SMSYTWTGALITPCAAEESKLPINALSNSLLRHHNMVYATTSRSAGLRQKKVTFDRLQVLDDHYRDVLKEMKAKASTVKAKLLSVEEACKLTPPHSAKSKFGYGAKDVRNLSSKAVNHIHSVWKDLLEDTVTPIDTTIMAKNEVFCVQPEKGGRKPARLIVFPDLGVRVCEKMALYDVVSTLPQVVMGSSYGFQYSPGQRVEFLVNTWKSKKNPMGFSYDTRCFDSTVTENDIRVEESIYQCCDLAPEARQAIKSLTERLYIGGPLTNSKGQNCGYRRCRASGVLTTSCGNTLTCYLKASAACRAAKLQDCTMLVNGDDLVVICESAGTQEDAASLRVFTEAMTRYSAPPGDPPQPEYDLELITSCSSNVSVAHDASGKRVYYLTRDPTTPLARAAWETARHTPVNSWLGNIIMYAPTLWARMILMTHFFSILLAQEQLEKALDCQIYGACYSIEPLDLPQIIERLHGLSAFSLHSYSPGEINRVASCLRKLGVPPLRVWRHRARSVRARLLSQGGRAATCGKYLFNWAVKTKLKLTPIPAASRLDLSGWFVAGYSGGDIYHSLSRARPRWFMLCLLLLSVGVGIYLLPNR
Protocol: Test of Inhibitory Effect on Activity of HCV RNA Polymerase (RNA Dependent RNA Polymerase, NS5B) In Vitro
The following in vitro experiments were conducted to find out the effect of inhibition activity of compounds of the present invention against HCV RNA Polymerase (RNA dependent RNA polymerase, NS5B).
HCV cDNA was obtained from the blood of HCV-1b type HCV patient and NS5B region (1773 bps) was amplified by PCR and cloned into pVLHIS, a baculovirus transfer vector, to prepare recombinant transfer vector. The prepared transfer vector and the wild-type AcNPV vector were cotransfected into Sf 9 cell line to yield recombinant baculovirus with the histidine-tagged recombinant vector pVLHIS-NS5B. Sufficiently cultured insect cells were infected with the resulting recombinant baculovirus and cultured in Grace' medium containing 10% FBS for 3–4 days. The culture broth was centrifuged to obtain only the infected cells. The cells were washed three times with PBS and resuspended in binding buffer [50 mM Na-phosphate (pH 8.0), 30 mM NaCl, 10 mM imidazole, 1 mM DTT, 10% glycerol, 1% NP-40], sonicated and the clearized lysate was obtained. Recombinant NS5B was purified by affinity column chromatography using a Ni-NTA His bind resin (Novagen) to produce pure NS5B protein. The (His)6-tagged NS5B was bound to Ni-NTA resin and washed with the binding buffer containing 50 mM imidazole. The bound NS5B was eluted with the binding buffer containing imidazole in a step-gradient manner (100–300 mM). The NS5B protein fractions were dialyzed against buffer [50 mM Tris-HCl, 50 mM NaCl, 1 mM DTT, […], 10% glycerol], followed by at −70° C. in a small aliquot.
The 3′UTR cDNA (220 bp) of HCV was obtained from 1b HCV RNA of the blood of a hepatitis C patient by PCR and cloned into pcDNA3 vector. Linearized DNA fragment containing 3′-UTR was prepared using the restriction enzyme, EcoRI and used as a temperate for in vitro transcription using T7 RNA ploymerase to prepare RNA fragment containing 3′-UTR.
In Vitro inhibitory activity of the compounds of the present invention against recombinant HCV RNA polymerase was measured as follows.
A streptavidin-coated well plate was prepared suitable for the sample to be examined. 25 μl of 2× assay buffer [50 mM Tris-Cl (pH 7.5), 100 mM NaCl, 10 mM MgCl2, 20 mM KCl, 1 mM EDTA, 1 mM DTT] and 10 μl of purified HCV RNA polymerase 200 ng and 3′-UTR template RNA were added to each well. Then, 5 μl of the sample to be examined was added to have final concentrations of 10, 1, 0.1 and 0.01 μg/mL. […] The optical density (OD) was measured using an ELISA reader (Bio-Tek instrument Co.) at 405 nm. The inhibitory effect on the activity of HCV polymerase was calculated by subtracting the OD of the positive control without the sample.

[2] = Cytotoxicity assay (MTT assay); type: cell-based; conditions: human, HepG2 cells, HepG 2 cell line
Protocol: To find out cytotoxicity of 6-methylpyridine derivative of the chemical formula 1, an in vitro experiment was conducted on the basis of the generally known MTT assay using HepG 2 cell line.

## Cc1ccc(C(=O)O)c(Nc2ccc(N3CCOCC3)cc2)n1 [Example 1, 6-methyl-2-[4-(4-morpholino)anilino] nicotinic acid]
[1]; 0.01 μg/ml
  Inhibition of activity of HCV RNA polymerase (%): 46%
[1]; 0.1 μg/ml
  Inhibition of activity of HCV RNA polymerase (%): 65%
[1]; 1 μg/ml
  Inhibition of activity of HCV RNA polymerase (%): 82%
[1]; 10 μg/ml
  Inhibition of activity of HCV RNA polymerase (%): 99%
[2]
  CC50: > 100 µg/mL
